{"source": "paper PMC4914440", "about": "(Pharmacological research, 2016)", "key": {"5-HT2A receptor [1]": {"molecular_target": "T1, 5-HT2A receptor (Homo sapiens, UniProt P28223)", "T1 sequence (P28223 whole entry)": "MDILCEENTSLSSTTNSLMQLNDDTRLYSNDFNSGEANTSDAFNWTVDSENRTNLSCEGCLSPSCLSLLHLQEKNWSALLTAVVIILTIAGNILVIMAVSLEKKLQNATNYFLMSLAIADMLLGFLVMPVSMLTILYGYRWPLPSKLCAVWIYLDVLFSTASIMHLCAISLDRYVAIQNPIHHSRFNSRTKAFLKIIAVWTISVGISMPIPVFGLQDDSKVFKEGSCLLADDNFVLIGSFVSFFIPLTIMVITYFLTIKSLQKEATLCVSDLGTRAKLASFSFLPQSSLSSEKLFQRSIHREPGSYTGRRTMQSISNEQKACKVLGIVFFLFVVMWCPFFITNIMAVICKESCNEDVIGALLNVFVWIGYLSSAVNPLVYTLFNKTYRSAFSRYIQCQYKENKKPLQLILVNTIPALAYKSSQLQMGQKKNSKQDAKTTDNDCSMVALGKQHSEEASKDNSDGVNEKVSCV", "experiment": "Intracellular calcium assay of Gq signaling, HEK293 cells", "format": "cell-based", "settings": "for agonist efficacy class: intracellular calcium"}, "h5-HT2A": {"molecular_target": "h5-HT2A (Homo sapiens, UniProt P28223)", "sequence (P28223 whole entry)": "as above"}, "r5-HT6": {"molecular_target": "r5-HT6 (Rattus norvegicus, UniProt P31388)", "sequence (P31388 whole entry)": "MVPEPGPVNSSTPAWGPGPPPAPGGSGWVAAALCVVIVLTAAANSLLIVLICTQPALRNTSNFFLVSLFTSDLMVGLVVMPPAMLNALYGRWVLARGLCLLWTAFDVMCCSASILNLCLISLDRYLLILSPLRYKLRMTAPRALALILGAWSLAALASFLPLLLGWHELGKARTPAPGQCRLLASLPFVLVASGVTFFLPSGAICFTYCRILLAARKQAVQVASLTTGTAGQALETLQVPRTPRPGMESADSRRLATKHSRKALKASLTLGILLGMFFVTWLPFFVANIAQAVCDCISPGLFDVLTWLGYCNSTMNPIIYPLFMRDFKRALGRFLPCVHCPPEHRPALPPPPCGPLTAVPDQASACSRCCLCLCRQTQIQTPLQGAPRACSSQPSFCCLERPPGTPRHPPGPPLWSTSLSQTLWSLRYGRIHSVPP", "experiment": "Radioligand displacement by a fixed drug concentration, [3H]LSD"}, "h5-HT2C": {"molecular_target": "T2, h5-HT2C (Homo sapiens, UniProt P28335)", "T2 sequence (P28335 33-458)": "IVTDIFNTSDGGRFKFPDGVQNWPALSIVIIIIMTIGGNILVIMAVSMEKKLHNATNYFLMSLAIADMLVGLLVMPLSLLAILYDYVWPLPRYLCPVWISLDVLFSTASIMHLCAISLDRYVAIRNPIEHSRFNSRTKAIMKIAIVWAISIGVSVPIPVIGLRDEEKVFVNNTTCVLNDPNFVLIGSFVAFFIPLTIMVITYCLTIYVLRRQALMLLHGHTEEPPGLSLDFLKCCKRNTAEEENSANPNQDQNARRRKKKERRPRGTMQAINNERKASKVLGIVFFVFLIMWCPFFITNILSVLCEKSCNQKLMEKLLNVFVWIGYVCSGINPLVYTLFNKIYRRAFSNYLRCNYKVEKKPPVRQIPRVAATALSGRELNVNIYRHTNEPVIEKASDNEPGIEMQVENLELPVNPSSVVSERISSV", "experiment": "Radioligand displacement by a fixed drug concentration, [3H]mesulergine"}, "α1β2γ2 GABAA receptors": {"molecular_target": "α1β2γ2 GABAA receptors (Rattus norvegicus, UniProt P18508+P62813+P63138)", "sequence (P62813 28-455)": "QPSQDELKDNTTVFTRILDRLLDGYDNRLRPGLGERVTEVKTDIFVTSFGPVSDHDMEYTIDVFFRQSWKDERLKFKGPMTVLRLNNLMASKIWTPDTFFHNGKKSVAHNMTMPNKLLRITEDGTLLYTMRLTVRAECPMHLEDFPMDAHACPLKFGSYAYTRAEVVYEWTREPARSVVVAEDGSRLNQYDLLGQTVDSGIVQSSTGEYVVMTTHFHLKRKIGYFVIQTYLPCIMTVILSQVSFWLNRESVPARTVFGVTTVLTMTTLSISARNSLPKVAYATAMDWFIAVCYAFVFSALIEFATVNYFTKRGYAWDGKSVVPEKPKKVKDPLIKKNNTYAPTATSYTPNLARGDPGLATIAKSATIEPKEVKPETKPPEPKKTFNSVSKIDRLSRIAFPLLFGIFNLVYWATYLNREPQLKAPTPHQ", "sequence (P63138 26-474)": "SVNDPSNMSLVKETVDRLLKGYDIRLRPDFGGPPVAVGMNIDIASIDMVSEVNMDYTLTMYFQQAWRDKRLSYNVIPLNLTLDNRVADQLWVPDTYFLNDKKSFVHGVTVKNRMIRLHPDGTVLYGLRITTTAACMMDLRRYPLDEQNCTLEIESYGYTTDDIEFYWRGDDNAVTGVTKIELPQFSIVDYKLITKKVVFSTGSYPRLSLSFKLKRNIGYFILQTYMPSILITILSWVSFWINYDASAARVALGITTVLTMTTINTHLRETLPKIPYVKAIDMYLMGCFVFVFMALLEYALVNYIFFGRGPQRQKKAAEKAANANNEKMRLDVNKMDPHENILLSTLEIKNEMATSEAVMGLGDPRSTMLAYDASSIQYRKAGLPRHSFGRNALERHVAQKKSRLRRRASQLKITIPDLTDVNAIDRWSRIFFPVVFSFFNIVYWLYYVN", "sequence (P18508 39-466)": "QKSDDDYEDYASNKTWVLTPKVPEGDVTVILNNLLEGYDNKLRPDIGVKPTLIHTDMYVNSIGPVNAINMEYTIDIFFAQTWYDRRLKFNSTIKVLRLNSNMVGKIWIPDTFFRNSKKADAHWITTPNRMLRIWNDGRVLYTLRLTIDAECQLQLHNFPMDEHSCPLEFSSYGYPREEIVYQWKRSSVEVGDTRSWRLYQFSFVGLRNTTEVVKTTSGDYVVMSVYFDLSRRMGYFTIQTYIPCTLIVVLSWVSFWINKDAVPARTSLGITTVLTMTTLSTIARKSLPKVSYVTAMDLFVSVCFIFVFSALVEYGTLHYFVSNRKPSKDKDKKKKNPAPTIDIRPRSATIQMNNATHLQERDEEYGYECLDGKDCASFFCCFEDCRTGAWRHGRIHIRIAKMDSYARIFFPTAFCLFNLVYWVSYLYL", "experiment": "Whole cell electrophysiology, GABA-activated currents, HEK293 cells", "format": "cell-based", "settings": "30 μM; for reduction of GABA-activated currents: EC30 GABA (5 μM)"}, "[2]": {"settings": "cited from earlier work"}, "5-HT2A receptor [3]": {"molecular_target": "T1, 5-HT2A receptor", "settings": "cloned human 5-HT2A receptor; cited from earlier work"}, "untransfected CHO cells": {"test_system": "untransfected CHO cells", "experiment": "Intracellular calcium assay, control cells", "format": "cell-based", "settings": "data not shown"}, "M3 muscarinic receptor": {"molecular_target": "M3 muscarinic receptor (Homo sapiens, UniProt P20309)", "sequence (P20309 whole entry)": "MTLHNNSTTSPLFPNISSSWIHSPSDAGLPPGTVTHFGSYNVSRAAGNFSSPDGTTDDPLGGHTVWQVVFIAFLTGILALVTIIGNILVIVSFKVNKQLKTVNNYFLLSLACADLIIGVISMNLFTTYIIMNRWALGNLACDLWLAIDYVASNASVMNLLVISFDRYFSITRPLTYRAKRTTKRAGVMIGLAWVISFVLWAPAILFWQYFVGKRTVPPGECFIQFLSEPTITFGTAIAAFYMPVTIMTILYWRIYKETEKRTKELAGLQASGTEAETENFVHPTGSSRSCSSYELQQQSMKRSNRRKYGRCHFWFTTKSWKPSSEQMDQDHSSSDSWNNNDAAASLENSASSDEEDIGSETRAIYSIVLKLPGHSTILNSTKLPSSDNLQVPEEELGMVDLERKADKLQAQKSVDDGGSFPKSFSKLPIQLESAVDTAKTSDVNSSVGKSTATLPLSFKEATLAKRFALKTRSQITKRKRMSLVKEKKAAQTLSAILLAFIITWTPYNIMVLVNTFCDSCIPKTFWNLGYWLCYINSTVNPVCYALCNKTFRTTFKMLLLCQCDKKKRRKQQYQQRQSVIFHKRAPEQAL", "experiment": "Intracellular calcium assay, untransfected HEK293 cells with endogenous receptor", "format": "cell-based"}, "untransfected HeLa cells": {"test_system": "untransfected HeLa cells", "experiment": "cAMP-Glo assay, control cells", "format": "cell-based, human", "settings": "efavirenz 30 μM, clozapine 30 μM, 5-HT 1 μM"}, "5-HT6 receptor [4]": {"molecular_target": "T3, 5-HT6 receptor (Rattus norvegicus, UniProt P31388)", "T3 sequence (P31388 whole entry)": "as the sequence (P31388 whole entry) above", "experiment": "cAMP-Glo assay of Gs signaling, HeLa cells", "format": "cell-based"}, "5-HT6 receptor [5]": {"molecular_target": "T3, 5-HT6 receptor", "experiment": "Competition radioligand binding, concentration-response"}, "[6]": {"test_system": "endogenous β-adrenergic receptor", "experiment": "cAMP-Glo assay, untransfected HeLa cells stimulated with", "format": "cell-based, human"}}, "note": "Like-named read-outs stand apart in the source and are kept apart here.", "data": [{"smiles": "COc1cc(CC(C)N)c(OC)cc1I", "note": "(racemic) [(±)-DOI]", "values": [{"measurement": "agonist efficacy class", "setting": "5-HT2A receptor [1]", "value": "partial agonists"}]}, {"smiles": "Nc1nc(=O)n([C@@H]2CS[C@H](CO)O2)cc1F", "note": "[FTC]", "values": [{"measurement": "interaction (radioligand displacement)", "setting": "h5-HT2A; 10 μM ARV drug, data not shown", "value": "no significant interactions"}, {"measurement": "interaction (radioligand displacement)", "setting": "h5-HT2A; 60 μM ARV drug", "value": "only NVP displayed a significant, albeit comparatively weak interaction, with the 5-HT6 receptor"}, {"measurement": "interaction (radioligand displacement)", "setting": "r5-HT6; 10 μM ARV drug, data not shown", "value": "no significant interactions"}, {"measurement": "interaction (radioligand displacement)", "setting": "r5-HT6; 60 μM ARV drug", "value": "only NVP displayed a significant, albeit comparatively weak interaction, with the 5-HT6 receptor"}, {"measurement": "interaction (radioligand displacement)", "setting": "h5-HT2C; 10 μM ARV drug, data not shown", "value": "no significant interactions"}, {"measurement": "interaction (radioligand displacement)", "setting": "h5-HT2C; 60 μM ARV drug", "value": "only NVP displayed a significant, albeit comparatively weak interaction, with the 5-HT6 receptor"}, {"measurement": "reduction of GABA-activated currents", "setting": "α1β2γ2 GABAA receptors", "value": "36–50 % of control"}]}, {"smiles": "CCN(CC)C(=O)[C@@H]1C=C2c3cccc4[nH]cc(c34)C[C@H]2N(C)C1", "note": "[LSD, Lysergic acid diethylamide]", "values": [{"measurement": "substitution when efavirenz was the discriminative stimulus", "setting": "[2]", "value": "partially substituted for efavirenz"}, {"measurement": "agonist efficacy class", "setting": "5-HT2A receptor [1]", "value": "partial agonists"}]}, {"smiles": "COc1cccc([C@H](O)C2CCN(CCc3ccc(F)cc3)CC2)c1OC", "note": "[MDL100,907]", "values": [{"measurement": "effect of pretreatment on efavirenz substitution for LSD", "setting": "[2]", "value": "this substitution was blocked by pretreatment"}]}, {"smiles": "Cc1ccnc2c1NC(=O)c1cccnc1N2C1CC1", "note": "[NVP]", "values": [{"measurement": "interaction (radioligand displacement)", "setting": "r5-HT6; 10 μM ARV drug, data not shown", "value": "no significant interactions"}, {"measurement": "interaction (radioligand displacement)", "setting": "r5-HT6; 60 μM ARV drug", "value": "significant, albeit comparatively weak interaction"}, {"measurement": "affinity lower than for efavirenz", "setting": "r5-HT6; 5-HT6 receptor, estimated", "value": "approximately 30 fold"}, {"measurement": "interaction (radioligand displacement)", "setting": "h5-HT2C; 10 μM ARV drug, data not shown", "value": "no significant interactions"}, {"measurement": "interaction (radioligand displacement)", "setting": "h5-HT2C; 60 μM ARV drug", "value": "only NVP displayed a significant, albeit comparatively weak interaction, with the 5-HT6 receptor"}, {"measurement": "potentiation of GABA-activated currents", "setting": "α1β2γ2 GABAA receptors; co-application with GABA", "value": 8, "unit": "%"}]}, {"smiles": "Cc1cn([C@H]2C[C@H](N=[N+]=[N-])[C@@H](CO)O2)c(=O)[nH]c1=O", "note": "[ZDV]", "values": [{"measurement": "interaction (radioligand displacement)", "setting": "r5-HT6; 10 μM ARV drug, data not shown", "value": "no significant interactions"}, {"measurement": "interaction (radioligand displacement)", "setting": "r5-HT6; 60 μM ARV drug", "value": "only NVP displayed a significant, albeit comparatively weak interaction, with the 5-HT6 receptor"}, {"measurement": "interaction (radioligand displacement)", "setting": "h5-HT2C; 10 μM ARV drug, data not shown", "value": "no significant interactions"}, {"measurement": "interaction (radioligand displacement)", "setting": "h5-HT2C; 60 μM ARV drug", "value": "only NVP displayed a significant, albeit comparatively weak interaction, with the 5-HT6 receptor"}, {"measurement": "reduction of GABA-activated currents", "setting": "α1β2γ2 GABAA receptors", "value": "36–50 % of control"}]}, {"smiles": "CN1CN(c2ccccc2)C2(CCN(CCCC(=O)c3ccc(F)cc3)CC2)C1=O", "note": "[[^3H]MSP, [3H]methylspiperone]", "values": [{"measurement": "Kd", "setting": "5-HT2A receptor [3]", "value": 0.246, "unit": "nM"}]}, {"smiles": "CC(=O)OCC[N+](C)(C)C", "note": "[acetylcholine]", "values": [{"measurement": "Gq-mediated response", "setting": "untransfected CHO cells", "value": "No Gq-mediated response"}, {"measurement": "receptor activation", "setting": "M3 muscarinic receptor", "value": "activated"}]}, {"smiles": "C[N+](C)(C)CCOC(N)=O", "note": "[carbachol]", "values": [{"measurement": "Gq-mediated response", "setting": "untransfected CHO cells", "value": "No Gq-mediated response"}]}, {"smiles": "CN1CCN(C2=Nc3cc(Cl)ccc3Nc3ccccc32)CC1", "note": "[clozapine]", "values": [{"measurement": "change in cAMP levels", "setting": "untransfected HeLa cells", "value": "no significant changes in cAMP levels"}, {"measurement": "effect on 5-HT agonist effect", "setting": "5-HT6 receptor [4]; 30 μM", "value": "completely overcame the agonist effects of 5-HT but also reduced cAMP levels to below basal"}, {"measurement": "effect on basal cAMP", "setting": "5-HT6 receptor [4]; 30 μM", "value": "significantly reduced basal levels of cAMP"}]}, {"smiles": "CN1[C@@H]2C[C@@H](OC(=O)[C@H](CO)c3ccccc3)C[C@H]1[C@@H]1O[C@@H]12", "note": "[scopolamine]", "values": [{"measurement": "block of acetylcholine response", "setting": "M3 muscarinic receptor", "value": "blocked"}]}, {"smiles": "NCCc1c[nH]c2ccc(O)cc12", "note": "[serotonin, 5-Hydroxytryptamine]", "values": [{"measurement": "Ki", "setting": "5-HT6 receptor [5]", "value": "105 ± 8", "unit": "nM"}, {"measurement": "pseudo Hill slope range", "setting": "5-HT2A receptor [1]; across serum conditions", "value": "0.55–0.70"}, {"measurement": "change in cAMP levels", "setting": "untransfected HeLa cells", "value": "no significant changes in cAMP levels"}, {"measurement": "EC50", "setting": "5-HT6 receptor [4]", "value": "12.7 ± 6.2", "unit": "nM"}, {"measurement": "pseudo Hill slope", "setting": "5-HT6 receptor [4]; increase in cAMP", "value": "1.02 ± 0.35"}]}, {"smiles": "CC(C)(C)NC[C@H](O)COc1nsnc1N1CCOCC1", "note": "[timolol]", "values": [{"measurement": "effect on (−)-epinephrine stimulated cAMP response", "setting": "[6]", "value": "blocked"}]}]}
